Measured values as given in patent US20250325531A1, “TREATMENT OF SYSTOLIC DYSFUNCTION” (MyoKardia, Inc., priority 2024, published 2025).

Columns and labels:
healthy subjects = assay: Transthoracic echocardiography (TTE) pharmacodynamics after single ascending doses in healthy volunteers; type: in vivo, human; details: for SET, mean (SD) increase from Baseline: 1.5 to 2 hours postdose
Protocol: To assess pharmacodynamic effects, serial echocardiograms were performed. The sonographers used in the study completed Echo protocol training and submitted an example of a study for evaluation to the core laboratory for evaluation. The core TTE lab certified that the sonographer was able to perform the TTEs at a level satisfactory for obtaining the required protocol data.
These criteria were chosen to prevent subjects from having prolongation of SET that might lead to myocardial ischemia. Dose escalation stopping criteria also included observation of a Baseline-corrected, group mean relative increase of >20% in any 2 sequential TTE assessments in at least 2 measures of LV contractility: LVOT-VTI, LVFS, LVEF, or LVSV in subjects receiving Compound I. Placebo-controlled evaluation may have been considered. For this comparison, subjects who received placebo may have been pooled across cohorts.
PK and PD data were collected as described herein. […] Changes from Baseline at each postbaseline timepoint were assessed.
SET as determined by TTE was assessed using summary statistics. Observations and change from Baseline were summarized by treatment at each time point and the maximum change from Baseline determined for each subject. In addition, categorical analyses were performed on the number of subjects with a change from Baseline >50 msec and the number of subjects with a change from Baseline >75 msec in 1 or any 2 sequential TTE assessments. The relationship to Compound I plasma concentration to SET was explored. An analysis of SET placebo-adjusted change from Baseline was also performed.
As the Cmax occurred at between 4 and 6 hours in most of the subjects, the TTE obtained at 6 hours postdose was considered the best timepoint to explore the relationship between concentration and pharmacological effect. TTEs obtained at 1.5 and 3 hours after dosing were before the Cmax and at 9 hours were after the peak Cmax. Based on the preclinical data, it was considered unlikely that there would be a prolonged lag between the Cmax and peak pharmacological effect. As the exposure after the administration of the 350 mg and 525 mg doses were very similar, it was decided to not only present the results from these groups separately, but also to combine the data from these groups. By combining the data from the 2 groups, the number of subjects dosed was increased from 6 to 12, thus increasing the power to observe a statistically significant change from Baseline in the TTE parameters of interest.

[1] = system: patients with stable HFrEF; assay: TTE pharmacodynamics in SAD cohorts, patients with stable HFrEF; type: in vivo, human; details: Pooled SAD Cohorts 1 and 2
Protocol: PD assessment was done by transthoracic echocardiography as described in Example 1 above. TTE evaluations of LVSV (derived from LVOT-VTI), LVEF, LVFS, SET, and other parameters were PD assessments at predetermined time points. The patients were on bed rest for 10 minutes before the TTEs were obtained. In Part 2 (MAD), TTEs were usually obtained before the morning dose and/or at 7 hours postdose (i.e., close to the anticipated peak effect based on the PK profile from the healthy volunteer studies).
For both Cohorts 1 and 2, the pharmacodynamic effects of Compound I on echocardiographic markers of cardiac structure and function were analyzed by Compound I plasma concentration groups: <2000 ng/ml (low concentration group) and ≥2000 ng/ml (high concentration group) (Table 12).

[2] = 6 hours postdose, plasma concentration bin 0-1000 ng/mL (n = 29)
[3] = 6 hours postdose, plasma concentration bin 1001-2000 ng/mL (n = 9)
[4] = 6 hours postdose, plasma concentration bin >2000 ng/mL (n = 10)
[5] = plasma concentrations >2000 ng/ml, 6 hours postdose
[6] = plasma concentration group <2000 ng/mL (n = 7)
[7] = plasma concentration group ≥2000 ng/mL (n = 12)

Cn1cc(S(=O)(=O)[C@@](C)(F)C2CCN(C(=O)Nc3ccon3)CC2)c(C(F)F)n1 [Compound I, (R)-4-(1-((3-(difluoromethyl)-1-methyl-1H-pyrazol-4-yl)sulfonyl)-1-fluoroethyl)-N-(isoxazol-3-yl) piperidine-1-carboxamide]
SET, mean (SD) increase from Baseline (healthy subjects; 350 mg and 525 mg combined): 18.0 (19.5) msec | SET, mean (SD) increase from Baseline (healthy subjects; 350 mg): 19.2 (20.5) msec | DBP, placebo-corrected LS mean difference of change from Baseline (healthy subjects; [2]): 2.277 mm Hg | E/A ratio, placebo-corrected LS mean difference of change from Baseline (healthy subjects; [2]): 0.150 | HR, placebo-corrected LS mean difference of change from Baseline (healthy subjects; [2]): −1.070 bpm | LVEDD, placebo-corrected LS mean difference of change from Baseline (healthy subjects; [2]): −0.014 cm | LVESD, placebo-corrected LS mean difference of change from Baseline (healthy subjects; [2]): 0.025 cm | LVFS, placebo-corrected LS mean difference of change from Baseline (healthy subjects; [2]): −0.560% | MPI, placebo-corrected LS mean difference of change from Baseline (healthy subjects; [2]): −0.007 | SBP, placebo-corrected LS mean difference of change from Baseline (healthy subjects; [2]): −0.623 mm Hg | DBP, placebo-corrected LS mean difference of change from Baseline (healthy subjects; [3]): 2.937 mm Hg | HR, placebo-corrected LS mean difference of change from Baseline (healthy subjects; [3]): 0.336 bpm | LVEDD, placebo-corrected LS mean difference of change from Baseline (healthy subjects; [3]): −0.041 cm | LVEDV, placebo-corrected LS mean difference of change from Baseline (healthy subjects; [3]): -6.100 mL | MPI, placebo-corrected LS mean difference of change from Baseline (healthy subjects; [3]): −0.021 | SBP, placebo-corrected LS mean difference of change from Baseline (healthy subjects; [3]): 1.132 mm Hg | DBP, placebo-corrected LS mean difference of change from Baseline (healthy subjects; [4]): 1.540 mm Hg | E/A ratio, placebo-corrected LS mean difference of change from Baseline (healthy subjects; [4]): −0.047 | E/e′(lateral), placebo-corrected LS mean difference of change from Baseline (healthy subjects; [4]): −0.063 | HR, placebo-corrected LS mean difference of change from Baseline (healthy subjects; [4]): 2.871 bpm | MPI, placebo-corrected LS mean difference of change from Baseline (healthy subjects; [4]): 0.033 | SBP, placebo-corrected LS mean difference of change from Baseline (healthy subjects; [4]): −1.572 mm Hg | plasma concentrations at which PD effects were discernable (healthy subjects; echocardiographic measures): ≥ 1000 ng/mL | IVRT (mitral inflow doppler), placebo-corrected LS mean difference (healthy subjects; [5]): 12.0 ms | stroke volume, placebo-corrected LS mean difference±SE (healthy subjects; [5]): 8.20 ± 3.99 mL | A wave peak, placebo-corrected mean change from Baseline (LS mean difference) [1, 6]: -3.2 cm/s | E wave peak, placebo-corrected mean change from Baseline (LS mean difference) [1, 6]: -1.1 cm/s | E/A ratio, placebo-corrected mean change from Baseline (LS mean difference) [1, 6]: 0.09 | E/e′ lateral, placebo-corrected mean change from Baseline (LS mean difference) [1, 6]: 0.6 | LVEDD, placebo-corrected mean change from Baseline (LS mean difference) [1, 6]: 0.2 mm | LVEDV, placebo-corrected mean change from Baseline (LS mean difference) [1, 6]: -2.5 mL | LVEF, placebo-corrected mean change from Baseline (LS mean difference) [1, 6]: 4.1% | LVESD, placebo-corrected mean change from Baseline (LS mean difference) [1, 6]: −1.3 mm | LVESV, placebo-corrected mean change from Baseline (LS mean difference) [1, 6]: -4.0 mL | LVFS, placebo-corrected mean change from Baseline (LS mean difference) [1, 6]: 3.1% | LVGLS, placebo-corrected mean change from Baseline (LS mean difference) [1, 6]: −1.1% | LVSV, placebo-corrected mean change from Baseline (LS mean difference) [1, 6]: 1.0 mL | SET, placebo-corrected mean change from Baseline (LS mean difference) [1, 6]: 8 ms | e′ lateral, placebo-corrected mean change from Baseline (LS mean difference) [1, 6]: -1 cm/s | A wave peak, placebo-corrected mean change from Baseline (LS mean difference) [1, 7]: -8.8 cm/s | E wave peak, placebo-corrected mean change from Baseline (LS mean difference) [1, 7]: -1.6 cm/s | E/A ratio, placebo-corrected mean change from Baseline (LS mean difference) [1, 7]: 0.08 | E/e′ lateral, placebo-corrected mean change from Baseline (LS mean difference) [1, 7]: 0.2 | LVEDD, placebo-corrected mean change from Baseline (LS mean difference) [1, 7]: −0.3 mm | LVEDV, placebo-corrected mean change from Baseline (LS mean difference) [1, 7]: -1.9 mL | LVEF, placebo-corrected mean change from Baseline (LS mean difference) [1, 7]: 4.4% | LVESD, placebo-corrected mean change from Baseline (LS mean difference) [1, 7]: −1.8 mm | LVESV, placebo-corrected mean change from Baseline (LS mean difference) [1, 7]: -3.5 mL | LVFS, placebo-corrected mean change from Baseline (LS mean difference) [1, 7]: 2.8% | LVGLS, placebo-corrected mean change from Baseline (LS mean difference) [1, 7]: −2.1% | LVSV, placebo-corrected mean change from Baseline (LS mean difference) [1, 7]: 9.0 mL | SET, placebo-corrected mean change from Baseline (LS mean difference) [1, 7]: 36 ms | e′ lateral, placebo-corrected mean change from Baseline (LS mean difference) [1, 7]: -1 cm/s
